# Results from patent US20190201494A1, “COMPOSITIONS AND METHODS FOR TREATING NICOTINE WITHDRAWAL” (STC UNM, priority 2016, published 2019).
# Entries after “also recorded” stand apart in the source; their conditions may differ.
# Columns and labels:
# Type in all cases: in vivo, human
# [1] = tested on: overnight abstinent smokers; assay: Blood measurements: insulin, glucose, C-peptide, non-esterified fatty acids (Example 1)
# Experimental: Blood measurements: Blood samples were analyzed for measurements of insulin, glucose, C-peptide, and non-esterified fatty acids.
# Serum insulin was analyzed on the Immulite 1000 immunoassay system (Siemens Healthcare GmbH, Erlangen, Germany). This is a solid-phase, enzyme-labeled chemiluminescent immunometric assay. The solid phase (bead) was coated with monoclonal murine anti-insulin antibody. The liquid phase consisted of alkaline phosphatase (bovine calf intestine) conjugated to polyclonal sheep anti-insulin antibody and alkaline phosphatase (bovine calf intestine) conjugated to monoclonal murine anti-insulin antibody. The patient sample and the reagent were incubated together with the coated bead for 60 minutes. During this time, insulin in the sample forms the antibody sandwich complex with the monoclonal murine anti-insulin antibody on the bead, enzyme conjugated polyclonal sheep anti-insulin antibody, and enzyme conjugated monoclonal murine anti-insulin antibody in the reagent. Unbound patient sample and enzyme conjugate were then removed by centrifugal washes. Finally, chemiluminescent substrate was added to the test unit containing the bead and the signal is generated in proportion to the bound enzyme.
# Serum glucose was performed on the ACE ALERA system (Alfa Wassermann Diagnostic Technologies, S.p.A., Bologna, Italy). An increase in absorbance of NADH is directly proportional to glucose concentration, and was measured bichromatically at 340 nm/378 nm.
# Serum C-peptide was performed on the Immulite 1000 immunoassay system (Siemens Healthcare GmbH, Erlangen, Germany). This is a solid-phase, two-site chemiluminescent immunometric assay. The solid phase (bead) is coated with monoclonal murine anti-C-peptide antibody. The liquid phase consists of alkaline phosphatase (bovine calf intestine) conjugated to monoclonal murine anti-C-peptide antibody in buffer. The patient sample and the reagent were incubated together with the coated bead for 30 minutes. During this time, C-peptide in the sample forms the antibody sandwich complex with monoclonal murine anti-C-peptide antibody in the reagent. Unbound patient sample and enzyme conjugate were then removed by centrifugal washes. Finally, chemiluminescent substrate was added to the Test Unit containing the bead and the signal is generated in proportion to the bound enzyme.
# Blood samples were collected at 12:20, 13:00, 13:40, and 14:10 and analyzed for non-esterified fatty acids using an AU 480 chemistry analyzer (Beckman Coulter, Inc., Brea, Calif.) using a NEFA-HR(2) kit (Wako Chemicals USA, Inc., Cape Charles, Va.).
# Random coefficient models were constructed for analyzing subjective (i.e., craving and mood), blood (insulin, glucose, C-peptide and nonesterified fatty acids) and cardiovascular (blood pressure) measures. For every model, an evaluation of non-linear term was performed, and, if significance was detected, that polynomial term for time was included in the model. Treatment, time and treatment by time interaction were included as fixed effects. Time nested within subjects was included as a random effect. If an interaction was detected, post hoc comparisons were performed comparing treatment groups at each time point. Cortisol was log-transformed for the purpose of normalizing distribution. The summary measure for cortisol analysis was peak change from baseline. […] Significance values are reported as detected; no adjustments were made for multiple comparisons.
# [2] = tested on: overnight abstinent smokers; assay: Positive and Negative Affect Schedule (PANAS) mood ratings (Example 1)
# Source text: Intranasal spray administration of insulin or placebo occurred at 12:30 PM. The purpose of the spacing time between morning check-in and nasal spray administration was stabilization of postprandial insulin levels. In a randomized fashion, the study nurse administered one spray in each nostril every three minutes for the total of six sprays of either insulin or placebo. Instructions to perform the Trier Social Stress Test were given at 13:20, and speech delivery occurred 13:30. Briefly, the Trier Social Stress Test^13 is a standardized laboratory stressor consisting of a free speech and a mental arithmetic task in front of an audience. Participants were introduced to the task and instructed to prepare a 5-minute presentation in which they were to promote their candidacy for a job. The speech was delivered after a 10-minute preparation period. Thereafter, participants were introduced to the mental arithmetic task, also standing in front of the audience and a self-projecting television screen. Subjects were required to count backwards from 2023 in steps of 17 as fast and accurately as possible for five minutes; upon making a mistake, subjects were asked to stop and start again at 2023. At every post-stress timepoint (13:40, 13:50, 14:00, 14:10, and 14:40), study nurses checked POC glucose to ensure euglycemia. After the last time point at 14:40, subjects ate a snack, had their glucose level checked, received another nares exam, and were discharged from the clinic at 16:00.
# Subjective measures included the Questionnaire on Smoking Urges (QSU) Brief Form and Positive and Negative Affect Schedule (PANAS). Urges to smoke were rated using the 10-item QSU Brief Form^14 that consists of 10-questions. The answers are scored from 1 (strongly disagree) to 7 (strongly agree). These questions are the basis for the two factor derived subscales. Factor 1 subscale reflects a strong desire and intention to smoke with smoking perceived as rewarding. Factor 2 subscale reflects an anticipation of relief from negative affect with an urgent desire to smoke. Study data analysis included evaluations of both factors. The PANAS (Watson et al., 1988. J Pers Soc Psychol 54(6):1063-1070) consists of 10 negative and 10 positive mood terms rated on five-point Likert-type response scales from 1 (very slightly or not at all) to 5 (extremely). Positive and negative scale scores each range between 10 and 50. The PANAS was chosen as a composite measure of self-reported positive and negative affect. Subjective measures were taken at 08:30, 12:20, 13:00, 13:40, 13:50, 14:00, 14:10 and 14:40.
# Random coefficient models were constructed for analyzing subjective (i.e., craving and mood), blood (insulin, glucose, C-peptide and nonesterified fatty acids) and cardiovascular (blood pressure) measures. For every model, an evaluation of non-linear term was performed, and, if significance was detected, that polynomial term for time was included in the model. Treatment, time and treatment by time interaction were included as fixed effects. Time nested within subjects was included as a random effect. If an interaction was detected, post hoc comparisons were performed comparing treatment groups at each time point. Cortisol was log-transformed for the purpose of normalizing distribution. The summary measure for cortisol analysis was peak change from baseline. Baseline cortisol was the 8:30 AM measurement, and time period for determination of peak was between 13:40 and 14:40. This time period reflects any cortisol change that resulted from the psychosocial stress procedure, with speech occurring from 13:30 to 13:35 and math from 13:35 to 13:40. Group differences were compared using analysis of variance (ANOVA). Significance values are reported as detected; no adjustments were made for multiple comparisons.
# [3] = tested on: overnight abstinent smokers; assay: Salivary cortisol response to Trier Social Stress Test (Example 1); settings: 60 IU vs placebo, F(1,35)=12.78, p≤0.001
# Source text: Intranasal spray administration of insulin or placebo occurred at 12:30 PM. The purpose of the spacing time between morning check-in and nasal spray administration was stabilization of postprandial insulin levels. In a randomized fashion, the study nurse administered one spray in each nostril every three minutes for the total of six sprays of either insulin or placebo. Instructions to perform the Trier Social Stress Test were given at 13:20, and speech delivery occurred 13:30. Briefly, the Trier Social Stress Test^13 is a standardized laboratory stressor consisting of a free speech and a mental arithmetic task in front of an audience. Participants were introduced to the task and instructed to prepare a 5-minute presentation in which they were to promote their candidacy for a job. […]
# Salivary measures: Saliva samples were collected using a saliva collection kit (Salimetrics, LLC, Carlsbad, Calif.). Saliva samples were collected at 08:30, 12:20, 13:00, 13:40, 13:50, 14:00, 14:10, and 14:40, and analyzed for cortisol as follows: A microtitre plate was coated with monoclonal antibodies to cortisol using salivary cortisol ELISA kit (Salimetrics, LLC, Carlsbad, Calif.). […] Bound cortisol peroxidase was measured by the reaction of the peroxidase enzyme on the substrate tetramethylbenzidine (TMB). […] Optical density was read on a standard plate at 450 nm. […]
substance,measurement,setting,value
"intranasal insulin: bulk human Regular insulin (U100 Novolin R, Novo Nordisk US), 100 IU/ml, six nasal sprays delivering 60 IU","Glucose, effect of treatment",[1]; 60 IU intranasal vs placebo,did not differ; also recorded: subjects remained well within euglycemic range; also recorded: minor decline in plasma glucose concentrations
same,"Serum (circulating) insulin levels, effect of treatment",[1]; 60 IU intranasal vs placebo,did not differ; also recorded: no detection of treatment effects; also recorded: no significant changes in circulating insulin
same,"Serum insulin, treatment×time interaction, b","[1]; SE(b)=0.01, z=−0.37, p=0.71, non-significant",−0.005
same,"Glucose, treatment×time interaction, b","[1]; SE(b)=0.02, z=2.60, p≤0.01",0.05
same,"Glucose, treatment, b","[1]; SE(b)=2.55, z=−1.06, p=0.28",−2.72
same,"Negative mood ratings (PANAS), effect of treatment",[2]; 60 IU vs placebo,the effect of treatment was not significant
same,"Positive mood ratings (PANAS), effect of treatment",[2]; 60 IU vs placebo,no effect
same,"Negative mood ratings (PANAS), effect of treatment","[2]; 60 IU vs placebo, listed as Intranasal insulin",no effect
same,"Negative mood (PANAS), treatment×time interaction, b","[2]; SE(b)=0.01, z=0.10, p=0.92, not significant",0.001
same,"Positive mood (PANAS), treatment×time interaction, b","[2]; SE(b)=0.017, z=−0.97, p=0.33, not significant",−0.01
same,"Negative mood (PANAS), effect of treatment, b","[2]; SE(b)=1.30, z=1.07, p=0.28, not significant",1.38
same,"Positive mood (PANAS), treatment, b","[2]; SE(b)=2.47, z=−0.19, p=0.84, not significant",−0.47
same,"Peak salivary cortisol levels following stress procedure (peak change from baseline, log-transformed)",[3],"increased (i.e., restored) the blunted cortisol response to stress; also recorded: restores blunted cortisol response to stress"
same,"Peak salivary cortisol levels following stress procedure (peak change from baseline, log-transformed)",[3]; listed as Intranasal insulin,significantly increased
